Data on one substance can be found in patent US20110123988A1, “ANTISENSE COMPOUNDS AND METHODS FOR DIAGNOSTIC IMAGING” (GENESEEN LLC, priority 2003, published 2011).

The series relates to cells expressing IGFR1 (murine BALB/c 3T3 cells; p6 cells overexpressing a transfected human IGFR1 gene; human Jurkat cells as negative control). As to the kind of experiment: Cellular uptake of PNA-peptide conjugates by cells in vitro. Format: cell-based. The note with it: versus control PNA Gly-CCGCTTCCTTTC without peptide; measured with both the 14C-conjugate and the fluoresceinyl-conjugate; BALB/c 3T3, p6 and Jurkat cells. An excerpt:
To improve cellular uptake of an IGFR1 antisense sequence targeted against IGFR1 mRNA codons 706-709 (CCGCTTCCTTTC, SEQ ID NO:42; Ullrich et al., 1986, EMBO J. 5:10:2503-2512), a PNA with this base sequence was conjugated to a D-amino acid IGF1 peptide having the sequence (Gly)4D(Cys-Ser-Lys-Cys). This peptide binds selectively to the cell surface receptor for insulin-like growth factor 1 (IGFR1), which is overexpressed on malignant cells (Pietrzkowski et al., 1992, Mol. Cell. Biol. 12:9:3883-3889). The same PNA was also conjugated to a control peptide of the sequence (Gly)4D(Cys-Ala-Ala-Cys), which is not expected to bind to cells expressing IGFR1. The IGF1 D-peptide and control peptide was assembled on (4-methyl benzhydrypamine (MBHA) resin, and then the PNA was extended as a continuation of the peptide. The IGF1 peptide and control peptide sequences were radiolabeled with ^14C or fluorescently labeled with fluorescein isothiocyanate (Basu & Wickstrom, 1997, Bioconj. Chem. 8:4:481-488).

Regarding “Gly-CCGCTTCCTTTC-(Gly)4D(CysSerLysCys) (PNA, Gly, (Gly)4, D-peptide, 14C or fluorescein label, chemistry not fully specified) [labeled with 14C or fluorescein]”, the cellular uptake entry was “much higher uptake than the control Gly-CCGCTTCCTTTC, but only in cells expressing IGFR1”.
